Measured values as given in ChEMBL document CHEMBL1129930, “Analogues of methotrexate in rheumatoid arthritis. 2. Effects of 5-deazaaminopterin, 5,10-dideazaaminopterin, and analogues on type II collagen-induced arthritis in mice” (J Med Chem, 1997).

Columns and labels:
Mus musculus [1] = assay: Tested for antiinflammatory activity on mouse type II collagen arthritis as Paw swelling of all animals in each group on day 44 at intraperitoneal dose of 6 mg/kg; format: functional
Mus musculus [2] = assay: Tested for antiinflammatory activity on mouse type II collagen arthritis as Paw swelling of all animals in each group on day 30 at intraperitoneal dose of 6 mg/kg; format: functional
Mus musculus [3] = assay: Incidence of disease (mouse type II collagen) was scored as the percentage of animals within each experimental group that exhibited joint or limb inflammation on day 37 at intraperitoneal dose of 3 mg/kg; format: functional
Mus musculus [4] = assay: Incidence of disease (mouse type II collagen) was scored as the percentage of animals within each experimental group that exhibited joint or limb inflammation on day 30 at intraperitoneal dose of 6 mg/kg; format: functional
Mus musculus [5] = assay: Tested for antiinflammatory activity on mouse type II collagen arthritis as Paw swelling of all animals in each group on day 44 at intraperitoneal dose of 3 mg/kg; format: functional
Mus musculus [6] = assay: Incidence of disease (mouse type II collagen) was scored as the percentage of animals within each experimental group that exhibited joint or limb inflammation on day 37 at intraperitoneal dose of 1.5 mg/kg; format: functional
Mus musculus [7] = assay: Tested for antiinflammatory activity on mouse type II collagen arthritis as Paw swelling of all animals in each group on day 23 at intraperitoneal dose of 3 mg/kg; format: functional
Mus musculus [8] = assay: Incidence of disease (mouse type II collagen) was scored as the percentage of animals within each experimental group that exhibited joint or limb inflammation on day 44 at intraperitoneal dose of 6 mg/kg; format: functional
Mus musculus [9] = assay: Incidence of disease (mouse type II collagen) was scored as the percentage of animals within each experimental group that exhibited joint or limb inflammation on day 23 at intraperitoneal dose of 6 mg/kg; format: functional
Mus musculus [10] = assay: Incidence of disease (mouse type II collagen) was scored as the percentage of animals within each experimental group that exhibited joint or limb inflammation on day 44 at intraperitoneal dose of 3 mg/kg; format: functional
Mus musculus [11] = assay: Tested for antiinflammatory activity on mouse type II collagen arthritis as Paw swelling of all animals in each group on day 37 at intraperitoneal dose of 6 mg/kg; format: functional
Mus musculus [12] = assay: Tested for antiinflammatory activity on mouse type II collagen arthritis as Paw swelling of all animals in each group on day 30 at intraperitoneal dose of 3 mg/kg; format: functional
Mus musculus [13] = assay: Incidence of disease (mouse type II collagen) was scored as the percentage of animals within each experimental group that exhibited joint or limb inflammation on day 23 at intraperitoneal dose of 1.5 mg/kg; format: functional
Mus musculus [14] = assay: Incidence of disease (mouse type II collagen) was scored as the percentage of animals within each experimental group that exhibited joint or limb inflammation on day 37 at intraperitoneal dose of 6 mg/kg; format: functional
Mus musculus [15] = assay: Incidence of disease (mouse type II collagen) was scored as the percentage of animals within each experimental group that exhibited joint or limb inflammation on day 23 at intraperitoneal dose of 3 mg/kg; format: functional
Mus musculus [16] = assay: Incidence of disease (mouse type II collagen) was scored as the percentage of animals within each experimental group that exhibited joint or limb inflammation on day 44 at intraperitoneal dose of 1.5 mg/kg; format: functional
Mus musculus [17] = assay: Tested for antiinflammatory activity on mouse type II collagen arthritis as Paw swelling of all animals in each group on day 44 at intraperitoneal dose of 1.5 mg/kg; format: functional
Mus musculus [18] = assay: Tested for antiinflammatory activity on mouse type II collagen arthritis as Paw swelling of all animals in each group on day 23 at intraperitoneal dose of 6 mg/kg; format: functional
Mus musculus [19] = assay: Tested for antiinflammatory activity on mouse type II collagen arthritis as Paw swelling of all animals in each group on day 37 at intraperitoneal dose of 1.5 mg/kg; format: functional
Mus musculus [20] = assay: Incidence of disease (mouse type II collagen) was scored as the percentage of animals within each experimental group that exhibited joint or limb inflammation on day 30 at intraperitoneal dose of 1.5 mg/kg; format: functional
Mus musculus [21] = assay: Tested for antiinflammatory activity on mouse type II collagen arthritis as Paw swelling of all animals in each group on day 30 at intraperitoneal dose of 1.5 mg/kg; format: functional
Mus musculus [22] = assay: Tested for antiinflammatory activity on mouse type II collagen arthritis as Paw swelling of all animals in each group on day 37 at intraperitoneal dose of 3 mg/kg; format: functional
Mus musculus [23] = assay: Tested for antiinflammatory activity on mouse type II collagen arthritis as Paw swelling of all animals in each group on day 23 at intraperitoneal dose of 1.5 mg/kg; format: functional
Mus musculus [24] = assay: Incidence of disease (mouse type II collagen) was scored as the percentage of animals within each experimental group that exhibited joint or limb inflammation on day 30 at intraperitoneal dose of 3 mg/kg; format: functional
[25] = Concentration required to inhibit the growth of chang liver cells.; format: functional; details: Homo sapiens
L1210 = assay: Concentration required to inhibit the growth of L1210 cells.; format: functional, cell-based; details: Mus musculus

SMILES | Paw swelling (Mus musculus [2]) | Animals (Mus musculus [3]) | Animals (Mus musculus [4]) | Paw swelling (Mus musculus [5]) | Animals (Mus musculus [6]) | Paw swelling (Mus musculus [7]) | Animals (Mus musculus [8]) | Animals (Mus musculus [9]) | Animals (Mus musculus [10]) | Paw swelling (Mus musculus [11]) | Paw swelling (Mus musculus [12]) | Animals (Mus musculus [13]) | Animals (Mus musculus [14]) | Animals (Mus musculus [15]) | Animals (Mus musculus [16]) | Paw swelling (Mus musculus [17]) | Paw swelling (Mus musculus [18]) | Paw swelling (Mus musculus [19]) | Animals (Mus musculus [20]) | Animals (Mus musculus [24]) | also measured
CCc1c(CN(C)c2ccc(C(=O)NC(CCC(=O)O)C(=O)O)s2)cnc2nc(N)nc(N)c12 (stereo unspecified) | 2.13 mm | 12% | 0% | 2.45 mm | 38% | 2.14 mm | 50% | 0% | 88% | 2.16 mm | 2.15 mm | 25% | 12% | 0% | 50% | 2.37 mm | 2.12 mm | 2.26 mm | 12% | 0% | Paw swelling (Mus musculus [1]): 2.32 mm; Paw swelling (Mus musculus [21]): 2.2 mm; Paw swelling (Mus musculus [22]): 2.2 mm; Paw swelling (Mus musculus [23]): 2.24 mm
Cc1c(CN(C)c2ccc(C(=O)NC(CCC(=O)O)C(=O)O)cc2)cnc2nc(N)nc(N)c12 (stereo unspecified) |  | 50% |  | 2.48 mm | 50% | 2.1 mm |  |  | 100% |  | 2.26 mm | 0% |  | 0% | 62% | 2.44 mm |  | 2.42 mm | 12% | 50% | IC50 [25]: 78 nM; IC50 (L1210): 1.3 nM; Paw swelling (Mus musculus [21]): 2.26 mm; Paw swelling (Mus musculus [22]): 2.47 mm
Cc1c(CN(C)c2ccc(C(=O)NC(CCC(=O)O)C(=O)O)s2)cnc2nc(N)nc(N)c12 (stereo unspecified) | 2.13 mm | 0% | 0% | 2.32 mm | 12% | 2.13 mm | 38% | 0% | 57% | 2.19 mm | 2.16 mm | 0% | 12% | 0% | 50% | 2.33 mm | 2.11 mm | 2.21 mm | 0% | 0% | Paw swelling (Mus musculus [22]): 2.14 mm; Paw swelling (Mus musculus [23]): 2.12 mm
CCCCc1c(CNc2ccc(C(=O)NC(CCC(=O)O)C(=O)O)cc2)cnc2nc(N)nc(N)c12 (stereo unspecified) | 2.15 mm | 12% | 0% | 2.27 mm | 38% | 2.16 mm | 50% | 0% | 38% | 2.27 mm | 2.15 mm | 0% | 50% | 0% | 38% | 2.27 mm | 2.12 mm | 2.23 mm | 0% | 0% | Paw swelling (Mus musculus [1]): 2.29 mm; Paw swelling (Mus musculus [21]): 2.17 mm; Paw swelling (Mus musculus [22]): 2.2 mm; Paw swelling (Mus musculus [23]): 2.16 mm
C=CCN(Cc1cnc2nc(N)nc(N)c2c1CC)c1ccc(C(=O)NC(CCC(=O)O)C(=O)O)cc1 (stereo unspecified) | 2.21 mm | 57% | 25% | 2.55 mm | 38% | 2.16 mm | 88% | 0% | 86% | 2.28 mm | 2.27 mm | 0% | 50% | 0% | 62% | 2.4 mm | 2.15 mm | 2.26 mm | 0% | 29% | Paw swelling (Mus musculus [1]): 2.45 mm; Paw swelling (Mus musculus [21]): 2.18 mm; Paw swelling (Mus musculus [22]): 2.34 mm; Paw swelling (Mus musculus [23]): 2.14 mm
Cc1c(CNc2ccc(C(=O)NC(CCC(=O)O)C(=O)O)cc2)cnc2nc(N)nc(N)c12 (stereo unspecified) | 2.16 mm | 40% | 0% | 2.53 mm | 25% | 2.21 mm | 100% | 0% | 60% | 2.34 mm | 2.18 mm | 0% | 100% | 12% | 75% | 2.55 mm | 2.12 mm | 2.31 mm | 0% | 0% | Paw swelling (Mus musculus [1]): 2.59 mm; IC50 [25]: 123 nM; IC50 (L1210): 1.8 nM; Paw swelling (Mus musculus [22]): 2.42 mm; Paw swelling (Mus musculus [23]): 2.13 mm
C#CCN(Cc1cnc2nc(N)nc(N)c2c1C)c1ccc(C(=O)NC(CCC(=O)O)C(=O)O)cc1 (stereo unspecified) | 2.21 mm | 50% | 25% | 2.38 mm | 50% | 2.12 mm | 62% | 12% | 62% | 2.32 mm | 2.27 mm | 0% | 62% | 0% | 62% | 2.37 mm | 2.23 mm | 2.33 mm | 25% | 25% | Paw swelling (Mus musculus [1]): 2.46 mm; IC50 [25]: 593 nM; IC50 (L1210): 1.6 nM; Paw swelling (Mus musculus [21]): 2.31 mm; Paw swelling (Mus musculus [23]): 2.16 mm
